In patent US8420052B2, “Imaging agents useful for identifying AD pathology” (Siemens Medical Solutions USA, Inc., priority 2008, dated 2013):

How the values were obtained:
[1] = Mouse brain microPET imaging; assay type: in vivo, mice
Procedure: Mouse Brain MicroPET Imaging
FIGS. 11 and 12 show the results of mouse brain imaging with 18F-W372 in WT and APP mice. […] There is not much difference between APP and WT mice, but both App mice do appear to be slightly better retained after 13 min (App:WT=1.5:1).
FIGS. 14a and 14b show a comparison of brain uptake between 18F-PiB and 18F-W372 using dynamic microPET scanning in young and old mice. […] The rapid washout of [18F]W372 is presumably a major factor for its low non-specific binding, yet the washout is slow enough to distinguish WT from APP.

[2] = system: human brain slices from AD patients; assay: Grey to white matter binding of tracers on human AD brain slices under various washing conditions; conditions: EtOH:water washes
Procedure: A study was conducted to examine the grey to white matter binding ratios for 2 different tracers: 18F-W372 and 18F-PiB. After the human brain slices from AD patients were incubated with a given tracer for 1 hr, the slices were washed with various EtOH:water solutions in an attempt to optimize the grey to white matter ratios. The results were surprising and unexpected in view of previous work performed by other researchers.

[3] = Mouse metabolism studies (organ uptake and metabolites); assay type: in vivo; conditions: mice, tail-vein
Procedure: Approximately 400 μCi of [F-18]W372 (at a volume of 200 μL) was injected via tail-vein into mice. The animals were sacrificed at 5 minutes (n=3) and 30 minutes (n=3) post-injection. Whole blood was obtained, weighed, and centrifuged at 13,000 RPM (3 minutes) to isolate plasma. The brain, kidneys, and liver were harvested, weighed, and homogenized in lysis buffer. 400 μL of each sample was subsequently removed, mixed with an equal volume of chloroform/methanol (1:1), vigorously vortexed, and placed on dry ice for 3 minutes. After thawing, another centrifugation step at 13,000 RPM (7 minutes) allowed for the separation of lipid (CHCl3) and aqueous (MeOH/H2O) phases. The hydrophobic and hydrophilic fractions were then removed, counted for radioactivity in a PerkinElmer Wizard gamma counter, and finally analyzed by Radio-HPLC (Raytest GmbH/Agilent).

[4] = molecular target: synthetic beta-Amyloid-42 (Homo sapiens, UniProt P05067); assay: Amyloid fibril (synthetic A-Beta42) binding assay; conditions: 10 uM synthetic beta-Amyloid-42, 90 min; compared with 18F-PiB
Procedure: Amyloid Fibril (Synthetic A-Beta42) Binding Assay Incubation of various concentration of [F18]-compound (starting with 200 nM cold compound and 100 μCi of F18-compound) with or without 10 μM of synthetic beta-Amyloid-42 for 90 min Filter through G/F glass fiber, wash filter 2 times with 20% ethanol/PBS at room temperature, count the radioactivity, and measure the KD value.

[5] = system: amyloid plaques and fibrils in human brain slices; assay: Human brain slice competition assay using autoradiography; assay type: binding; conditions: radiolabeled tracer approx. 20 uCi, 90 min rt, lower = more displacement; for _max low dose (percent dose remaining relative to control with no blocker): blocker 0.25 uM; for _max high dose (percent dose remaining relative to control with no blocker): blocker 2.5 uM
Procedure: Human Brain Slice Competition Assay Using Autoradiography
Briefly, 5 micron thick human brain slices from regions of the brain bearing high amyloid plaque and fibril burden were incubated with approximately 20 uCi of a radiolabeled tracer in 2.5%:2.5%:95% DMSO:EtOH:PBS in the presence of blocker (2.5 and 0.25 uM total concentration) or absence of blocker (control). The slices were incubated at rt for 90 min. The slices were then quickly washed in PBS, followed by 70% EtOH:PBS for 2 min, then 30% EtOH:PBS for 2 min and then quickly washed with PBS. The slices were dried for 30 min and then exposed on autoradiographic film for 20 min. The brain slices were then removed from the slide and the radioactivity counted in a gamma counter. The percent dose remaining, relative to a control with no blocker, at 0.25 uM is represented in the “_max low dose” column. The percent dose remaining, relative to a control with no blocker, at 2.5 uM is represented in the “_max high dose” column.

[6] = molecular target: 18F-PiB binding sites, amyloid plaque and fibril in human brain slices (Homo sapiens, UniProt P05067); assay: Human AD brain slice competition against 18F-PiB (IC50); conditions: for IC50: tracer 18F-PiB, human AD brain slices, blocker 0.01 to 10 uM
Procedure: (§1) The slices were incubated at room temperature for 90 min. The slices were then quickly washed in PBS, followed by 70% EtOH:PBS for 2 min, then 30% EtOH:PBS for 2 min and then quickly washed with PBS. The slices were dried for 30 min and then exposed on autoradiographic film for 20 min. The brain slices were then removed from the slide and the radioactivity counted in a gamma counter. The percentage of blocking versus the concentrations of blocker was then plotted, and IC50 was calculated based on the curve.

[7] = molecular target: 18F-W372 binding sites, amyloid plaque and fibril in human brain slices (Homo sapiens, UniProt P05067); assay: Human AD brain slice competition against 18F-W372 (IC50); conditions: tracer 18F-W372, blocker 0.01 to 10 uM
Procedure: as §1

Sequence of 18F-PiB binding sites, amyloid plaque and fibril in human brain slices (P05067 672-711 limits assumed): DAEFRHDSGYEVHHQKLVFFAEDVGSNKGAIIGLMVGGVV
Sequence of 18F-W372 binding sites, amyloid plaque and fibril in human brain slices (P05067 whole entry): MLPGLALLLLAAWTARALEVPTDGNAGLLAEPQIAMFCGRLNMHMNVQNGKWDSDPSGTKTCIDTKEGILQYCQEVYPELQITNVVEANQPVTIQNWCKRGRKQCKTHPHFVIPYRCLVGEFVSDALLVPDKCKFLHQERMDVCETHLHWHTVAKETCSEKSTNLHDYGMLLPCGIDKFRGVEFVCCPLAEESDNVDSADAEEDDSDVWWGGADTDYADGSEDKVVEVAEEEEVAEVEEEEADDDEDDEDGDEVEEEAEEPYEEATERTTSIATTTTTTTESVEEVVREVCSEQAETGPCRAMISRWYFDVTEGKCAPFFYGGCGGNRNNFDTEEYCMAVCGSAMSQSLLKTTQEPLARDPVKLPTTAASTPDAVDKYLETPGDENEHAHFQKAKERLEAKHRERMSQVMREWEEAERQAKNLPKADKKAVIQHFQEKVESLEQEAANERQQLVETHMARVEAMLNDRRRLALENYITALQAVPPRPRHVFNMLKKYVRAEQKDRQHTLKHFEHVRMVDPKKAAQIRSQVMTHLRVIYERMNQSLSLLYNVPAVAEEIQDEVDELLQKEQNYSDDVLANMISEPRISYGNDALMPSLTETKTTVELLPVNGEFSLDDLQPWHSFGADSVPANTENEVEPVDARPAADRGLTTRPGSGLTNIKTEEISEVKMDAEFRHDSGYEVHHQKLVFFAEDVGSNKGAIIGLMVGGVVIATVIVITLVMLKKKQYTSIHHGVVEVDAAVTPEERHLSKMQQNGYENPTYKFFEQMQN
Sequence of synthetic beta-Amyloid-42 (P05067 672-713 limits assumed): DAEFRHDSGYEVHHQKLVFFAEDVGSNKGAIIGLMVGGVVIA

| SMILES | _max low dose (percent dose remaining relative to control with no blocker) [5] [%] | _max high dose (percent dose remaining relative to control with no blocker) [5] [%] | also measured |
| --- | --- | --- | --- |
| COc1ccc2c(n1)sc1nc(-c3ccc([18F])nc3)cn12 [Compound 18F-W372] |  |  | brain washout (microPET) ([1]; 30 minute dynamic scans, young/old, WT/App mice): sufficiently slow washout such that one can distinguish WT from APP mice; brain uptake (microPET) ([1]; WT and APP mice): > 9 % ID/g; grey to white matter binding ratios ([2]; 1 hr incubation): excellent grey to white matter binding ratios; non-specific (white matter) binding [2]: lower non-specific binding than 18F-PiB; brain uptake ([3]; 5 minutes post-injection): 3.8 % ID/g; brain uptake ([3]; 30 minutes post-injection): 0.47 % ID/g; KD value, synthetic amyloid fibril [4]: lower KD value compared with the known compound 18F-PiB |
| Oc1ccc(-c2cc3ccccn3c2)cc1 [Compound W103] | 35.38 | 3.50 |  |
| CNc1ccc2c(c1)[nH]c1cc(OCc3ccccc3)ccc12 [Compound W104] | 48.35 | 34.77 |  |
| CNc1ccc2c(c1)[nH]c1cc(OCCF)ccc12 [Compound W106] | 46.04 | 21.03 |  |
| COc1ccc2c(c1)sc1nc(-c3ccc(F)cc3)cn12 [Compound W119] |  | 7.85 |  |
| CNc1ccc(-c2nc3ccc(OC)cc3s2)cn1 [Compound W184] |  | 8.05 |  |
| CNc1ccc(-c2ccc3scnc3c2)cc1 [Compound W189, 4-(benzo[d]thiazol-5-yl)-N-methylaniline] |  | 9.53 |  |
| COc1ccc2c(n1)sc1nc(-c3ccc(F)cc3)cn12 [Compound W332] |  |  | IC50 [6]: 79 nM |
| COc1ccc2c(n1)sc1nc(-c3ccc(F)nc3)cn12 [Compound W372, 7-Methoxy-2(6-fluoropyridin-3-yl)imidazo[2,1-b]8-pyridinothiazole] |  |  | competition with 18F-PiB for binding sites / binding affinity relative to PiB ([6]; human AD brains): strongly competes with 18F-PiB for binding sites in human AD brains; IC50 [6]: 73 nM; IC50 [7]: 37 nM |
| COc1ccc2c(c1)oc1nc(-c3ccc(F)cn3)cn12 [Compound W380, 7-methoxy-2-(5-fluoro-2-pyridyl)-imidazo[2,1-b]benzoxazole] |  |  | IC50 [6]: 73 nM |
| COc1ccc2c(n1)oc1nc(-c3ccc(F)cc3)cn12 [Compound W386, 7-Methoxy-2(4-fluorophenyl)imidazo[2,1-b]8-pyridino-oxazole] |  |  | IC50 [6]: 210 nM; IC50 [7]: 71 nM |
| COc1ccc2c(c1)sc1nc(-c3ccc(F)nc3)cn12 [Compound W388] |  |  | IC50 [7]: 150 nM |
| COc1ccc2c(n1)sc1nc(-c3ccc(F)c(O)c3)cn12 [Compound W389] |  |  | IC50 [6]: 130 nM |
| COc1ccc2c(n1)sc1nc(-c3cnc(F)cn3)cn12 [Compound W392, 7-methoxy-2(2-fluoropyrazin-5-yl)imidazo[2,1-b]8-pyridinothiazole] |  |  | IC50 [7]: 210 nM |
| COc1ccc2c(n1)oc1nc(-c3ccc(F)nc3)cn12 [Compound W393] |  |  | IC50 [7]: 170 nM |
| FCCOCCOCCOc1ccc2c(c1)[nH]c1c3ccccc3sc21 [DHK4-57] | 81.06 | 30.70 |  |
| FCCOCCOCCOc1ccc2c(c1)[nH]c1ncccc12 [DHK4-58] | 88.82 | 85.78 |  |
| CNc1ccc2c(c1)[nH]c1cc(O)ccc12 [GC3125] | 47.08 | 18.59 |  |
| FCCCCOc1cccc(-c2cc3ccccn3c2)c1 [IN3] | 98.13 | 67.27 |  |
| CN(CCF)c1ccc(/C=C2/C(=O)Nc3ccccc32)cc1 [OX-2, (E)-3-(4-((2-fluoroethyl)(methyl)amino)benzylidene)indolin-2-one] | 68.22 | 82.78 |  |
| FCCNc1nc(-c2ccc3ccccc3c2)cs1 [TZ001, N-(2-fluoroethyl)-4-(naphthalen-2-yl)thiazol-2-amine] | 98.06 | 52.00 |  |
| COc1ccc(-n2c(=O)sc3ccccc32)cc1 [UG470, 3-(4-methoxyphenyl)benzo[d]thiazol-2(3H)-one] | 81.29 | 79.87 |  |
| CN(C)c1ccc(-c2ncc(/C=C/c3ccc(O)cc3)s2)cc1 [UG-4-69, (E)-4-(2-(2-(4-(dimethylamino)phenyl)thiazol-5-yl)vinyl)phenol] | 69.79 | 31.02 |  |
| O=CNc1ccc2c(c1)[nH]c1cc(OCc3ccccc3)ccc12 [WZ01169] | 42.09 | 36.55 |  |
| Nc1nc(-c2ccc3ccccc3c2)cs1 [w18] | 69.20 | 27.86 |  |
| Oc1ccc2c(c1)[nH]c1cc(NCCF)ccc12 [w78] | 99.49 | 63.32 |  |
